In ChEMBL document CHEMBL1148744, “Synthesis and antiviral and cytostatic evaluations of the new C-5 substituted pyrimidine and furo[2,3-d]pyrimidine 4',5'-didehydro-L-ascorbic acid derivatives” (J Med Chem, 2007):
≈ marks a conversion by molar mass, not a printed value.

Tested on: Vaccinia virus
Assay: Antiviral activity against Vaccinia virus in HEL cells assessed as reduction of virus-induced cytopathogenicity
Format: functional
Settings: Orthopoxvirus vaccinia

Row | Compound | MIC [µM]
1 | Nc1nc2c(ncn2COCCO)c(=O)[nH]1 [ACYCLOVIR] | > 250
2 | O=c1[nH]c(=O)n([C@H]2C[C@H](O)[C@@H](CO)O2)cc1/C=C/Br [BRIVUDINE] | 2 (≈ 0.666 µg/mL)
3 | NC(=O)c1ncn([C@@H]2O[C@H](CO)[C@@H](O)[C@H]2O)n1 [RIBAVIRIN] | 150 (≈ 36.6 µg/mL)
4 | Nc1nc2c(ncn2COC(CO)CO)c(=O)[nH]1 [GANCICLOVIR] | 100 (≈ 25.5 µg/mL)
